Reference: PubChem BioAssay (NCI)
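All cell lines were grown in 96-well plates and treated with compound for 48 hours. At the GI50, growth is halved. TGI: concentration producing complete growth inhibition.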

Key:
Experiment in all cases: DTP human tumour cell line panel, 48 h
CAKI-1 renal = test system: CAKI-1 renal
M14 melanoma = test system: M14 melanoma
K-562 leukemia = test system: K-562 leukemia
COLO 205 colon = test system: COLO 205 colon
ACHN renal = test system: ACHN renal
OVCAR-3 ovarian = test system: OVCAR-3 ovarian
KM12 colon = test system: KM12 colon
MALME-3M melanoma = test system: MALME-3M melanoma
NCI/ADR-RES ovarian = test system: NCI/ADR-RES ovarian
HS 578T breast = test system: HS 578T breast
SF-539 CNS = test system: SF-539 CNS
NCI-H460 lung = test system: NCI-H460 lung
SNB-75 CNS = test system: SNB-75 CNS
OVCAR-4 ovarian = test system: OVCAR-4 ovarian
SK-MEL-5 melanoma = test system: SK-MEL-5 melanoma
OVCAR-8 ovarian = test system: OVCAR-8 ovarian
NCI-H226 lung = test system: NCI-H226 lung
BT-549 breast = test system: BT-549 breast
MDA-MB-231 breast = test system: MDA-MB-231 breast
TK-10 renal = test system: TK-10 renal
SW-620 colon = test system: SW-620 colon
EKVX NSCLC = test system: EKVX NSCLC
HL-60(TB) leukemia = test system: HL-60(TB) leukemia
NCI-H522 lung = test system: NCI-H522 lung
PC-3 prostate = test system: PC-3 prostate
CCRF-CEM leukemia = test system: CCRF-CEM leukemia
SK-MEL-2 melanoma = test system: SK-MEL-2 melanoma
SR leukemia = test system: SR leukemia
SK-MEL-28 melanoma = test system: SK-MEL-28 melanoma
A549 NSCLC = test system: A549 NSCLC
HCC-2998 colon = test system: HCC-2998 colon
RPMI-8226 leukemia = test system: RPMI-8226 leukemia
SK-OV-3 ovarian = test system: SK-OV-3 ovarian
UO-31 renal = test system: UO-31 renal
SF-295 CNS = test system: SF-295 CNS
RXF 393 renal = test system: RXF 393 renal
SF-268 CNS = test system: SF-268 CNS
MOLT-4 leukemia = test system: MOLT-4 leukemia
SN12C renal = test system: SN12C renal
DU-145 prostate = test system: DU-145 prostate
NCI-H23 lung = test system: NCI-H23 lung
MDA-MB-435 = test system: MDA-MB-435
HOP-92 NSCLC = test system: HOP-92 NSCLC
SNB-19 CNS = test system: SNB-19 CNS
T-47D breast = test system: T-47D breast
UACC-62 melanoma = test system: UACC-62 melanoma
UACC-257 melanoma = test system: UACC-257 melanoma
OVCAR-5 ovarian = test system: OVCAR-5 ovarian
HT29 colon = test system: HT29 colon
A498 renal = test system: A498 renal
MCF7 breast = test system: MCF7 breast
HOP-62 NSCLC = test system: HOP-62 NSCLC
IGROV1 ovarian = test system: IGROV1 ovarian
HCT-116 colon = test system: HCT-116 colon
MDA-N = test system: MDA-N
786-0 renal = test system: 786-0 renal

COc1cc2c(cc1OCCCN1CCN(c3ncnc4ccccc34)CC1)N=CC1CCCN1C2=O (stereo not given)
GI50 (CAKI-1 renal): 19.1 nM | TGI (CAKI-1 renal): 57.4 nM | GI50 (M14 melanoma): 30.3 nM | TGI (M14 melanoma): 138 nM | GI50 (K-562 leukemia): 26.2 nM | GI50 (COLO 205 colon): 20.3 nM | TGI (COLO 205 colon): 44.6 nM | GI50 (ACHN renal): 42.6 nM | TGI (ACHN renal): 564 nM | GI50 (OVCAR-3 ovarian): 26.9 nM | TGI (OVCAR-3 ovarian): 59.5 nM | GI50 (KM12 colon): 32.5 nM | TGI (KM12 colon): 183 nM | GI50 (MALME-3M melanoma): 19.8 nM | TGI (MALME-3M melanoma): 47.9 nM | GI50 (NCI/ADR-RES ovarian): 373 nM | TGI (NCI/ADR-RES ovarian): 7110 nM | GI50 (HS 578T breast): < 17.7 nM | TGI (HS 578T breast): 56.8 nM | GI50 (SF-539 CNS): 27.1 nM | TGI (SF-539 CNS): 69.6 nM | GI50 (NCI-H460 lung): 28.2 nM | TGI (NCI-H460 lung): 298 nM | GI50 (SNB-75 CNS): 35.7 nM | TGI (SNB-75 CNS): 168 nM | GI50 (OVCAR-4 ovarian): 63.3 nM | TGI (OVCAR-4 ovarian): 8630 nM | GI50 (SK-MEL-5 melanoma): 16.8 nM | TGI (SK-MEL-5 melanoma): 32.3 nM | GI50 (OVCAR-8 ovarian): 43 nM | TGI (OVCAR-8 ovarian): > 53600 nM | GI50 (NCI-H226 lung): 34.8 nM | TGI (NCI-H226 lung): 247 nM | GI50 (BT-549 breast): 24.8 nM | TGI (BT-549 breast): 89.5 nM | GI50 (MDA-MB-231 breast): 20.5 nM | TGI (MDA-MB-231 breast): 73.6 nM | GI50 (TK-10 renal): 29.3 nM | TGI (TK-10 renal): 1080 nM | GI50 (SW-620 colon): 19.8 nM | TGI (SW-620 colon): 55.6 nM | GI50 (EKVX NSCLC): 152 nM | TGI (EKVX NSCLC): 677 nM | GI50 (HL-60(TB) leukemia): 30.7 nM | TGI (NCI-H522 lung): 28.5 nM | GI50 (PC-3 prostate): 23.2 nM | TGI (PC-3 prostate): 97.3 nM | GI50 (CCRF-CEM leukemia): < 14.6 nM | TGI (CCRF-CEM leukemia): 480 nM | GI50 (SK-MEL-2 melanoma): 64.6 nM | TGI (SK-MEL-2 melanoma): 512 nM | GI50 (SR leukemia): < 14.9 nM | TGI (SR leukemia): 96.8 nM | GI50 (SK-MEL-28 melanoma): 33.6 nM | TGI (SK-MEL-28 melanoma): 103 nM | GI50 (A549 NSCLC): 35.6 nM | TGI (A549 NSCLC): > 47900 nM | GI50 (HCC-2998 colon): 19 nM | TGI (HCC-2998 colon): 38.1 nM | GI50 (RPMI-8226 leukemia): < 11.9 nM | TGI (RPMI-8226 leukemia): 35.3 nM | GI50 (SK-OV-3 ovarian): 32.6 nM | TGI (SK-OV-3 ovarian): 6780 nM | GI50 (UO-31 renal): 75.4 nM | TGI (UO-31 renal): 558 nM | GI50 (SF-295 CNS): 25.8 nM | TGI (SF-295 CNS): 54.5 nM | GI50 (RXF 393 renal): 20.5 nM | TGI (RXF 393 renal): 39.4 nM | GI50 (SF-268 CNS): 33.9 nM | TGI (SF-268 CNS): 625 nM | GI50 (MOLT-4 leukemia): 17.5 nM | TGI (MOLT-4 leukemia): 59.6 nM | GI50 (SN12C renal): 37.4 nM | TGI (SN12C renal): 3970 nM | GI50 (DU-145 prostate): 27.8 nM | TGI (DU-145 prostate): 311 nM | GI50 (NCI-H23 lung): 26.8 nM | TGI (NCI-H23 lung): 81.9 nM | GI50 (MDA-MB-435): 21.4 nM | TGI (MDA-MB-435): 49.8 nM | GI50 (HOP-92 NSCLC): 19.9 nM | TGI (HOP-92 NSCLC): 52.9 nM | GI50 (SNB-19 CNS): 41 nM | TGI (SNB-19 CNS): 11200 nM | GI50 (T-47D breast): 22.2 nM | TGI (T-47D breast): 75.7 nM | GI50 (UACC-62 melanoma): 18 nM | TGI (UACC-62 melanoma): 37.9 nM | GI50 (UACC-257 melanoma): 150 nM | TGI (UACC-257 melanoma): 737 nM | GI50 (OVCAR-5 ovarian): 26.3 nM | TGI (OVCAR-5 ovarian): 71.7 nM | GI50 (HT29 colon): 29.8 nM | TGI (A498 renal): 16.4 nM | GI50 (MCF7 breast): 18.9 nM | TGI (MCF7 breast): 1020 nM | GI50 (HOP-62 NSCLC): 28.2 nM | TGI (HOP-62 NSCLC): 278 nM | GI50 (IGROV1 ovarian): 12.6 nM | TGI (IGROV1 ovarian): 26.9 nM

CN(C)Cc1cc(/C=C/C(=O)c2ccc(Cl)c(Cl)c2)cc(CN(C)C)c1O
TGI (HCT-116 colon): 26100 nM | TGI (CAKI-1 renal): 21100 nM | TGI (M14 melanoma): 33300 nM | TGI (K-562 leukemia): 91200 nM | TGI (COLO 205 colon): 32500 nM | TGI (ACHN renal): 25400 nM | TGI (OVCAR-3 ovarian): 23800 nM | TGI (KM12 colon): 26300 nM | TGI (MALME-3M melanoma): 22700 nM | TGI (NCI/ADR-RES ovarian): 50600 nM | TGI (SF-539 CNS): 20300 nM | TGI (NCI-H460 lung): 22700 nM | TGI (SNB-75 CNS): 21100 nM | TGI (SK-MEL-5 melanoma): 28100 nM | TGI (OVCAR-8 ovarian): 32800 nM | TGI (BT-549 breast): 22200 nM | TGI (MDA-MB-231 breast): 21800 nM | TGI (TK-10 renal): 25600 nM | TGI (SW-620 colon): 30100 nM | TGI (EKVX NSCLC): 30100 nM | TGI (HL-60(TB) leukemia): > 100000 nM | TGI (PC-3 prostate): 28200 nM | TGI (CCRF-CEM leukemia): 16900 nM | TGI (SK-MEL-2 melanoma): 31000 nM | TGI (SK-MEL-28 melanoma): 26900 nM | TGI (A549 NSCLC): 36800 nM | TGI (HCC-2998 colon): 19300 nM | TGI (RPMI-8226 leukemia): 36800 nM | TGI (SK-OV-3 ovarian): 36900 nM | TGI (UO-31 renal): 19600 nM | TGI (SF-295 CNS): 36100 nM | TGI (MDA-N): 29800 nM | TGI (RXF 393 renal): 28400 nM | TGI (SF-268 CNS): 23700 nM | TGI (MOLT-4 leukemia): 32300 nM | TGI (786-0 renal): 21300 nM | TGI (SN12C renal): 30200 nM | TGI (DU-145 prostate): 27100 nM | TGI (MDA-MB-435): 23300 nM | TGI (SNB-19 CNS): 32500 nM | TGI (T-47D breast): 24100 nM | TGI (UACC-62 melanoma): 27400 nM | TGI (UACC-257 melanoma): 25800 nM | TGI (OVCAR-5 ovarian): 28300 nM | TGI (HT29 colon): 28600 nM | TGI (A498 renal): 32400 nM | TGI (MCF7 breast): 31700 nM | TGI (HOP-62 NSCLC): 38000 nM | TGI (IGROV1 ovarian): 25300 nM
